# Assay results as given in US7790769B2, “Merocyanine derivatives” (Ciba Corporation, priority 2005, dated 2010).
# Experiment: Solubility behaviour in water and cosmetic solvents/oils
# Assay type: physicochemical
# Conditions: for Solubility behaviour [%], Cyclomethicone: solvent: Cyclomethicone; for Solubility behaviour [%], Finsolve TN: solvent: Finsolve TN; for Solubility behaviour [%], Jojoba Oil: solvent: Jojoba Oil; for Solubility behaviour [%], Mineral Oil: solvent: Mineral Oil; for Solubility behaviour [%], Mygliol: solvent: Mygliol; for Solubility behaviour [%], Polydecene: solvent: Polydecene; for Solubility behaviour [%], Propyleneglycol: solvent: Propyleneglycol; for Solubility behaviour [%], (Water): solvent: water
"Solubility behaviour [%], Cyclomethicone [%]","Solubility behaviour [%], Finsolve TN [%]","Solubility behaviour [%], Jojoba Oil [%]","Solubility behaviour [%], Mineral Oil [%]","Solubility behaviour [%], Mygliol [%]","Solubility behaviour [%], Polydecene [%]","Solubility behaviour [%], Propyleneglycol [%]","Solubility behaviour [%], (Water) [%]",SMILES
0.540,>50,>50,1.514,>50,0.734,0.766,0.000,CCCCC(CC)CN(CC(CC)CCCC)C1=CC(=C(C#N)C#N)CCC1 (stereo not shown)
0.509,>5,2.470,0.569,>5,0.367,0.361,0.000,CCCCC(CC)CN(CC(CC)CCCC)C1=CC(=C(C#N)C#N)CC(C)(C)C1 (stereo not shown)
